# Data reported in patent publication US6197225A, “Chromene compound” (Tokuyama Corporation, priority 1997, dated 2001).
# How the values were obtained:
# [1] = Aging promotion testing: sunlight 30 min / fading one hour cycles, 10 days (durability, coloring degree); assay type: physicochemical
# Experimental: In order to promote the aging, furthermore, the following testing was conducted. That is, the obtained photochromic polymer was irradiated with sunlight for 30 minutes to develop color, and its color was permitted to fade for one hour in the light of a fluorescent lamp. This cycle was repeated three times a day for a total of 10 days.
# The photochromic properties before and after aged were evaluated by evaluating the color densities before and after aged. The initial color density (T0) and the color density (T30) ten days after the aging promotion testing were measured, and the durability was expressed as described below.
# Furthermore, the coloring degrees of before developing color were measured before and after aged by using a color difference meter (SM-4) manufactured by Suga Shikenki Co.
# 7 Coloring degree before being aged=YI(0).
# 8 Change in the coloring degree (ΔYI)=YI(10)-YI(0)
# YI(10): coloring degree after aged
# (§1) Photochromic polymers were prepared in the same manner as in Example 42 but using the chromene compounds obtained in Examples 2 to 41, and their maximum absorption wavelengths, color densities, fading rates, changes in the coloring degrees and durabilitys were measured.
# (§2) For the purpose of comparison, furthermore, the compounds represented by the following formulas (a), (b), (c), (d), (e) and (f) were measured for their maximum absorption wavelengths, color densities, fading rates, changes in the coloring degrees and durabilitys.
# (§3) The procedure was carried out in the same manner as in Example 42 but using 100 parts of AC1 and 133 parts of BC1, the sum of the amounts of AC1 and BC1 being 0.04% by weight. The obtained photochromic polymer was measured for its maximum absorption wavelength, initial color, color density, color-developing sensitivity, fading rate, durability and change in the coloring degree.
# (§4) The procedure was carried out in the same manner as in Example 83 but using the known chromene compounds shown in Table 6 instead of the chromene compound used in Example 83. […]
# The obtained polymer (2 mm thick) was caused to develop color outdoors, and tones of the developed color were observed by eyes 30 seconds and 15 minutes after it was brought to the outdoors, and uniformity in the step of developing color was evaluated. […] Furthermore, the aging promoting testing was conducted in the same manner as in Example 42 to find a coloring degree (YI(0)) before aged and a change in the coloring degree (ΔY).
# [2] = Photochromic properties of cast polymer (2 mm thick) under xenon lamp irradiation for 120 seconds; assay type: physicochemical
# Experimental: 0.04% by weight of the chromene compound obtained in Example 1 was added to 70 parts of 4G, 15 parts of 3G, 10 parts of GMA, 5 parts of HEMA and 1 part of perbutyl ND, and was mixed together to a sufficient degree. The mixture solution was poured into a mold constituted by a glass plate and a gasket of an ethylene/vinyl acetate copolymer, and was cast-polymerized. By using an air furnace, the polymerization was conducted in a manner that the temperature was gradually raised from 30° C. to 90° C. over a period of 18 hours, and was held at 90° C. for 2 hours. After the polymerization, the polymer was taken out from the glass mold.
# By using a xenon lamp, L-2480 (300 W) SHL-100, manufactured by Hamamatsu Photonics Co., the obtained polymer (2 mm thick) was irradiated with a beam of an intensity of 365 nm=2.4 mW/cm^2 and 245 nm=24 μW/cm^2 on the surface of the polymer for 120 seconds through an aero-mass filter (manufactured by Corning Co.) at 20° C.±1° C. to develop color and to measure the photochromic properties which were expressed in the following manner.
# 1 Maximum absorption wavelength (λmax): λmax of the polymer after it has developed color was found by using a spectrophotometer (instantaneous multi-channel photo-detector, MCPD1000) manufactured by Otsuka Denshi Kogyo Co.
# 2 Initial color ( ε(0)): Absorbency of the polymer in a non-irradiated state at a wavelength same as the maximum absorption wavelength of when it is irradiated with light.
# 3 Color density (-)=ε(120)-ε(0). ε(120): Absorbency of the polymer at a maximum absorption wavelength after it was irradiated for 120 seconds under the above-mentioned conditions.
# 4 Color-developing sensitivity (-/min.)=Saturated color density/xenon irradiation time.
# Rate of increase in the color density per a unit time until the color density is saturated.
# 5 Color fading rate [t1/2 (min.)]=time required until the absorbency of the polymer drops down to one-half of [ε(120)-ε(0)] after irradiated for 120 seconds.
# as §1, §2, §3, §4
# [3] = YI(10)-YI(0), single chromene compound in polymer, 10 days aging, Table 5
# [4] = single chromene compound in polymer, 10 days aging, Table 5
# [5] = single chromene compound 0.04% by weight in polymer, 20° C., Table 5
# [6] = single chromene compound 0.04% by weight in polymer, 120 seconds, 20° C., Table 5
# [7] = chromene composition, or other chromene C1-C4, 10 days aging, Table 6
Structure (SMILES),"Change in the coloring degree ΔYI [1, 3]","Light resistance (durability) [1, 4] [%]","Fading rate t1/2 [2, 5] [min]","Maximum absorption wavelength λmax [2, 5] [nm]","Color density ε(120)-ε(0) [2, 6]","Change in the coloring degree ΔYI [1, 7]","Durability [1, 7] [%]","λ max ([2]; chromene composition, or other chromene C1-C4, 0.04% by weight in polymer, Table 6) [nm]","Color density ε(120)-ε(0) ([2]; chromene composition, or other chromene C1-C4, 120 seconds, Table 6)","Initial color ε(0) ([2]; chromene composition, or other chromene C1-C4, non-irradiated, Table 6)","Fading rate t1/2 ([2]; chromene composition, or other chromene C1-C4, Table 6) [min]","Color-developing sensitivity ([2]; saturated color density/xenon irradiation time, Table 6)"
COc1ccc(C2(c3ccc(OC)cc3)C=Cc3c(C)cc4c(OC)cccc4c3O2)cc1 [Compound 33],2.2,98,5.5,520,1.3,,,,,,,
CCOc1ccc(C2(c3ccc(OC)cc3)C=Cc3c(CC)cc4c(Cc5ccccc5)cccc4c3O2)cc1 (stereo not shown) [Compound 39],2.5,96,5.8,524,1.0,,,,,,,
COc1ccc(C2(c3ccco3)C=Cc3c(C)cc4c(F)ccc(C)c4c3O2)cc1 (stereo not shown) [Compound 41],3.2,95,6.3,510,1.0,,,,,,,
CC(C)(C)c1cc2ccccc2c2c1C=CC1(O2)C2(Cl)CCC1(Cl)CC2 (stereo not shown) [Compound 20],4.0,80,1.3,440,0.4,,,,,,,
COc1ccc(C2(c3ccc(OC)c(F)c3)C=Cc3c(C)cc4ccccc4c3O2)cc1 (stereo not shown) [Compound 34],2.4,97,6.5,502,1.1,,,,,,,
CC(C)(C)c1cc2ccccc2c2c1C=CC1(O2)C2CC3CC(C2)CC1C3 (stereo not shown) [Compound 24],5.0,95,1.8,445,0.6,,,,,,,
CC(C)(C)c1cc2ccccc2c2c1C=CC(c1ccccc1)(c1ccccc1)O2 [Compound 1],0.2,99,3.6,462,0.7,,,,,,,
CC(C)c1cc2ccccc2c2c1C=CC1(O2)C2CCC1CC2 (stereo not shown) [Compound 19],5.5,92,1.0,448,0.5,,,,,,,
COc1ccc(C2(c3ccco3)C=Cc3c(C)cc4ccccc4c3O2)cc1F (stereo not shown) [Compound 31],3.0,95,7.0,506,1.1,,,,,,,
COc1ccc(C2(c3cccs3)C=Cc3c(C)cc4ccccc4c3O2)cc1 (stereo not shown) [Compound 32],2.7,96,6.5,512,1.0,,,,,,,
CC(C)(C)c1cc2ccccc2c2c1C=CC(c1ccccc1)(c1cccs1)O2 (stereo not shown) [Compound 6],1.8,97,2.8,480,0.8,,,,,,,
"Cc1c2c(c3ccccc3c1C)OC(c1ccccc1)(c1ccccc1)C=C2 [Compound C3, 5,6-Dimethyl-2,2-diphenyl-2H-benzo(h)chromene, reference compound]",,,,,,5.0,95,480,1.0,0.01,10,0.2 -/min.
CCC(C)(C)c1cc2ccccc2c2c1C=CC(c1ccc(OC)cc1)(c1ccco1)O2 (stereo not shown) [Compound 3],2.0,95,3.1,488,1.1,,,,,,,
